Assay results taken from patent publication US9714266B2, “Estra-1,3,5(10),16-tetraene-3-carboxamides for inhibition of 17β-hydroxysteroid dehydrogenase (AKR1C3)” (priority 2013, dated 2017).
Where “and” joins values, the source holds several entries; their conditions need not be identical. Equal entries are not always repeated.

Target: AKR1C3 (Homo sapiens (Human), UniProt P42330)
Experiment: AKR1C3 enzyme assay (coumberone reduction, fluorescence)
Type: biochemical
Details: recombinant human AKR1C3, coumberone 0.3 μM, NADPH 10 μM; read-out: AKR1C3 enzyme inhibition IC50
Protocol: The AKR1C3-inhibitory action of the substances of this invention was measured in the AKR1C3 assay described in the paragraphs which follow. Essentially, the enzyme activity is measured by quantifying the coumberol formed from coumberone ([…]., and […]. AM. CHEM. SOC. 130, 14123-14128 (2008) […]., Bauman, D. R., Penning, T. M., and […]., Proc. Natl. Acad. Sci. USA 103, 13304-13309 (2006)). In this assay, the increase in the highly fluorescent coumberol can be determined by NADPH (nicotinamide adenine dinucleotide phosphate)-dependent reduction of the nonfluorescent coumberone by AKR1C3. […] NM_003739). This was expressed as the GST (glutathione S-transferase) fusion protein in E. coli and purified by means of glutathione-Sepharose affinity chromatography. The GST was removed by thrombin digestion with subsequent size exclusion chromatography (Dufort, I., Rheault, P., Huang, X F., Soucy, P., and Luu-The, V., Endocrinology 140, 568-574 (1999)). […] The concentration of the AKR1C3 was matched to the respective activity of the enzyme preparation and set such that the assay worked within the linear range. Typical concentrations were in the region of 1 nM. The reaction was stopped by adding 5 μl of a stop solution consisting of the inhibitor EM-1404 [F. Labrie et al. U.S. Pat. […] Subsequently, the fluorescence of coumberol was measured at 520 nm (excitation at 380 nm) with a suitable measuring instrument (Pherastar from BMG Labtechnologies).

AKR1C3, sequence (P42330 whole entry): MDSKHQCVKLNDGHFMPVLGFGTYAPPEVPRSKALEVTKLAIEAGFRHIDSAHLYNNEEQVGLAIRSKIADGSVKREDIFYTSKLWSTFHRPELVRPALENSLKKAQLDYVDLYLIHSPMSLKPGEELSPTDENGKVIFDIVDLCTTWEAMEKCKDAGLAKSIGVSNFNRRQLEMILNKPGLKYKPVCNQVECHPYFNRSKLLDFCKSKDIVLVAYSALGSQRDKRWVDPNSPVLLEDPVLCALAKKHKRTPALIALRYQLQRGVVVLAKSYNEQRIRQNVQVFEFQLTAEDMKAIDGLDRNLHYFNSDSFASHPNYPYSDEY

SMILES | IC50
C[C@]12CC[C@@H]3c4ccc(C(=O)N[C@H]5CCC[C@H]5O)cc4CC[C@H]3[C@@H]1CC=C2c1cncc(F)c1 [Example 9, 17-(5-fluoropyridin-3-yl)-N-[(1S,2R)-2-hydroxycyclopentyl]oestra-1,3,5(10),16-tetraene-3-carboxamide] | 61 nM and 81 nM
CC(C)N(CCO)C(=O)c1ccc2c(c1)CC[C@@H]1[C@@H]2CC[C@]2(C)C(c3cncc(F)c3)=CC[C@@H]12 [Example 19, 17-(5-fluoropyridin-3-yl)-N-(2-hydroxyethyl)-N-isopropyloestra-1,3,5(10),16-tetraene-3-carboxamide] | 60 nM and 48 nM
CN(CCCO)C(=O)c1ccc2c(c1)CC[C@@H]1[C@@H]2CC[C@]2(C)C(c3cncc(F)c3)=CC[C@@H]12 [Example 34, 17-(5-fluoropyridin-3-yl)-N-(3-hydroxypropyl)-N-methyloestra-1,3,5(10),16-tetraene-3-carboxamide] | 6 nM
CC(C)S(=O)(=O)CCNC(=O)c1ccc2c(c1)CC[C@@H]1[C@@H]2CC[C@]2(C)C(c3cncc(F)c3)=CC[C@@H]12 [Example 42, 17-(5-fluoropyridin-3-yl)-N-[2-(isopropylsulphonyl)ethyl]oestra-1,3,5(10),16-tetraene-3-carboxamide] | 11 nM
CC(C)(CO)CNC(=O)c1ccc2c(c1)CC[C@@H]1[C@@H]2CC[C@]2(C)C(c3cncc(F)c3)=CC[C@@H]12 [Example 10, 17-(5-fluoropyridin-3-yl)-N-[2-(hydroxymethyl)-2-methylpropyl]oestra-1,3,5(10),16-tetraene-3-carboxamide] | 97 nM and 46 nM
C[C@]12CC[C@@H]3c4ccc(C(N)=O)cc4CC[C@H]3[C@@H]1CC=C2c1cncnc1 [Example 5, 17-(pyrimidin-5-yl)oestra-1,3,5(10),16-tetraene-3-carboxamide] | 313 nM and 199 nM and 143 nM
CNC(=O)CCNC(=O)c1ccc2c(c1)CC[C@@H]1[C@@H]2CC[C@]2(C)C(c3cncc(F)c3)=CC[C@@H]12 [Example 27, 17-(5-fluoropyridin-3-yl)-N-[3-(methylamino)-3-oxopropyl]oestra-1,3,5(10),16-tetraene-3-carboxamide] | 5 nM
CCNC(=O)c1ccc2c(c1)CC[C@@H]1[C@@H]2CC[C@]2(C)C(c3cncc(F)c3)=CC[C@@H]12 [Example 39, N-ethyl-17-(5-fluoropyridin-3-yl)oestra-1,3,5(10),16-tetraene-3-carboxamide] | 5 nM
CN(CCO)C(=O)c1ccc2c(c1)CC[C@@H]1[C@@H]2CC[C@]2(C)C(c3cncc(F)c3)=CC[C@@H]12 [Example 44, 17-(5-fluoropyridin-3-yl)-N-(2-hydroxyethyl)-N-methyloestra-1,3,5(10),16-tetraene-3-carboxamide] | 12 nM
C[C@]12CC[C@@H]3c4ccc(C(=O)N5CCC[C@H]5C(N)=O)cc4CC[C@H]3[C@@H]1CC=C2c1cncc(F)c1 [Example 30, 1-{[17-(5-fluoropyridin-3-yl)oestra-1,3,5(10),16-tetraen-3-yl]carbonyl}-L-prolinamide] | 12 nM
C[C@]12CC[C@@H]3c4ccc(C(=O)NCCOCCO)cc4CC[C@H]3[C@@H]1CC=C2c1cncc(F)c1 [Example 46, 17-(5-fluoropyridin-3-yl)-N-[2-(2-hydroxyethoxy)ethyl]oestra-1,3,5(10),16-tetraene-3-carboxamide] | 6 nM
CCN(CCO)C(=O)c1ccc2c(c1)CC[C@@H]1[C@@H]2CC[C@]2(C)C(c3cncc(F)c3)=CC[C@@H]12 [Example 32, N-ethyl-17-(5-fluoropyridin-3-yl)-N-(2-hydroxyethyl)oestra-1,3,5(10),16-tetraene-3-carboxamide] | 11 nM
C[C@]12CC[C@@H]3c4ccc(C(=O)N[C@H]5CCC[C@@H]5O)cc4CC[C@H]3[C@@H]1CC=C2c1cncc(F)c1 [Example 11, 17-(5-fluoropyridin-3-yl)-N-[(1S,2S)-2-hydroxycyclopentyl]oestra-1,3,5(10),16-tetraene-3-carboxamide] | 34 nM and 20 nM
C[C@]12CC[C@@H]3c4ccc(C(N)=O)cc4CC[C@H]3[C@@H]1CC=C2c1cncc(C#N)c1 [Example 6, 17-(5-cyanopyridin-3-yl)oestra-1,3,5(10),16-tetraene-3-carboxamide] | 346 nM
C[C@H](O)CNC(=O)c1ccc2c(c1)CC[C@@H]1[C@@H]2CC[C@]2(C)C(c3cncc(F)c3)=CC[C@@H]12 [Example 45, 17-(5-fluoropyridin-3-yl)-N—[(S)-2-hydroxypropyl]oestra-1,3,5(10),16-tetraene-3-carboxamide] | 6 nM
C[C@]12CC[C@@H]3c4ccc(C(=O)NC5(CO)CCCC5)cc4CC[C@H]3[C@@H]1CC=C2c1cncc(F)c1 [Example 13, 17-(5-fluoropyridin-3-yl)-N-[1-(hydroxymethyl)cyclopentyl]oestra-1,3,5(10),16-tetraene-3-carboxamide] | 108 nM and 79 nM
C[S+]([O-])CCNC(=O)c1ccc2c(c1)CC[C@@H]1[C@@H]2CC[C@]2(C)C(c3cncc(F)c3)=CC[C@@H]12 (some centres unmarked) [Example 37, 17-(5-fluoropyridin-3-yl)-N-[2-(methylsulphinyl)ethyl]oestra-1,3,5(10),16-tetraene-3-carboxamide] | 5 nM
COc1cncc(C2=CC[C@H]3[C@@H]4CCc5cc(C(N)=O)ccc5[C@H]4CC[C@]23C)c1 [Example 2, 17-(5-methoxypyridin-3-yl)oestra-1,3,5(10),16-tetraene-3-carboxamide] | 189 nM and 100 nM
CC(O)C(C)NC(=O)c1ccc2c(c1)CCC1C2CCC2(C)C(c3cncc(F)c3)=CCC12 [Example 18, rel-17-(5-fluoropyridin-3-yl)-N-[(1R,2R)-2-hydroxy-1-methylpropyl]oestra-1,3,5(10),16-tetraene-3-carboxamide] | 45 nM and 35 nM
C[C@]12CC[C@@H]3c4ccc(C(=O)NCCS(N)(=O)=O)cc4CC[C@H]3[C@@H]1CC=C2c1cncnc1 [Example 47, 17-(pyrimidin-5-yl)-N-(2-sulphamoylethyl)oestra-1,3,5(10),16-tetraene-3-carboxamide] | 119 nM
C[C@]12C[C@H](F)[C@@H]3c4ccc(C(=O)NCCS(N)(=O)=O)cc4CC[C@H]3[C@@H]1CC=C2c1cncc(F)c1 [Example 8, 11β-fluoro-17-(5-fluoropyridin-3-yl)-N-(2-sulphamoylethyl)oestra-1,3,5(10),16-tetraene-3-carboxamide] | 73 nM
C[C@]12CC[C@@H]3c4ccc(C(=O)NCCS(N)(=O)=O)cc4CC[C@H]3[C@@H]1CC=C2c1cccnc1 [Example 23, 17-(3-pyridyl)-N-(2-sulphamoylethyl)oestra-1,3,5(10),16-tetraene-3-carboxamide] | 9 nM
CC(C)(CNC(=O)c1ccc2c(c1)CC[C@@H]1[C@@H]2CC[C@]2(C)C(c3cncc(F)c3)=CC[C@@H]12)NS(C)(=O)=O [Example 31, 17-(5-fluoropyridin-3-yl)-N-{2-methyl-2-[(methylsulphonyl)amino]propyl}oestra-1,3,5(10),16-tetraene-3-carboxamide] | 19 nM
C[C@]12CC[C@@H]3c4ccc(C(N)=O)cc4CC[C@H]3[C@@H]1CC=C2c1cncc(C(F)(F)F)c1 [Example 3, 17-[5-(trifluoromethyl)pyridin-3-yl]oestra-1,3,5(10),16-tetraene-3-carboxamide] | 46 nM and 25 nM
CC[C@@H](CO)NC(=O)c1ccc2c(c1)CC[C@@H]1[C@@H]2CC[C@]2(C)C(c3cncc(F)c3)=CC[C@@H]12 [Example 15, 17-(5-fluoropyridin-3-yl)-N—[(S)-1-(hydroxymethyl)propyl]oestra-1,3,5(10),16-tetraene-3-carboxamide] | 25 nM
C[C@]12CC[C@@H]3c4ccc(C(=O)NCCS(N)(=O)=O)cc4CC[C@H]3[C@@H]1CC=C2c1cncc(C(F)(F)F)c1 [Example 24, N-(2-sulphamoylethyl)-17-[5-(trifluoromethyl)pyridin-3-yl]oestra-1,3,5(10),16-tetraene-3-carboxamide] | 17 nM
C[C@]12CC[C@@H]3c4ccc(C(=O)NCCC(N)=O)cc4CC[C@H]3[C@@H]1CC=C2c1cncc(F)c1 [Example 26, N-(3-amino-3-oxopropyl)-17-(5-fluoropyridin-3-yl)oestra-1,3,5(10),16-tetraene-3-carboxamide] | 5 nM
C[C@]12CC[C@@H]3c4ccc(C(=O)NC[C@@H](O)CO)cc4CC[C@H]3[C@@H]1CC=C2c1cncc(F)c1 [Example 36, N—[(R)-2,3-dihydroxypropyl]-17-(5-fluoropyridin-3-yl)oestra-1,3,5(10),16-tetraene-3-carboxamide] | 6 nM
CNS(=O)(=O)CCNC(=O)c1ccc2c(c1)CC[C@@H]1[C@@H]2CC[C@]2(C)C(c3cncc(C(F)(F)F)c3)=CC[C@@H]12 [Example 25, N-[2-(N-methylsulphamoyl)ethyl]-17-[5-(trifluoromethyl)pyridin-3-yl]oestra-1,3,5(10),16-tetraene-3-carboxamide] | 48 nM
